System: 186277-243-T-J2-PDC complex spheroid viability
Test: Anticancer human tumor 186277-243-T-J2-PDC patient-derived colon adenocarcinoma cell line growth inhibition [GQUAD]
Details: for IC50: curve of first compound; for viability, T/C: stronger effect = lower value
Procedure, shortened: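 Tumor cells were grown as complex spheroids with HUVEC endothelial cells and mesenchymal stem cells as stroma. G-quadruplex stabilizers were combined with targeted agents over half-log dilutions from near the clinical Cmax, or from 10 microM.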

[1] = second compound 0.0316 µM, first compound 0.0316 µM
[2] = second compound 0.0316 µM, first compound 0.1 µM
[3] = second compound 0.0316 µM, first compound 0.316 µM
[4] = second compound 0.0316 µM, first compound 1 µM
[5] = second compound 0.0316 µM, first compound 3.16 µM
[6] = second compound 0.0316 µM, first compound 10 µM
[7] = second compound 0.1 µM, first compound 0.0316 µM
[8] = second compound 0.1 µM, first compound 0.1 µM
[9] = second compound 0.1 µM, first compound 0.316 µM
[10] = second compound 0.1 µM, first compound 1 µM
[11] = second compound 0.1 µM, first compound 3.16 µM
[12] = second compound 0.1 µM, first compound 10 µM
[13] = second compound 0.316 µM, first compound 0.0316 µM
[14] = second compound 0.316 µM, first compound 0.1 µM
[15] = second compound 0.316 µM, first compound 0.316 µM
[16] = second compound 0.316 µM, first compound 1 µM
[17] = second compound 0.316 µM, first compound 3.16 µM
[18] = second compound 0.316 µM, first compound 10 µM
[19] = second compound 1 µM, first compound 0.0316 µM
[20] = second compound 1 µM, first compound 0.1 µM
[21] = second compound 1 µM, first compound 0.316 µM
[22] = second compound 1 µM, first compound 1 µM
[23] = second compound 1 µM, first compound 3.16 µM
[24] = second compound 1 µM, first compound 10 µM
[25] = second compound 3.16 µM, first compound 0.0316 µM
[26] = second compound 3.16 µM, first compound 0.1 µM
[27] = second compound 3.16 µM, first compound 0.316 µM
[28] = second compound 3.16 µM, first compound 1 µM
[29] = second compound 3.16 µM, first compound 3.16 µM
[30] = second compound 3.16 µM, first compound 10 µM
[31] = second compound 10 µM, first compound 0.0316 µM
[32] = second compound 10 µM, first compound 0.1 µM
[33] = second compound 10 µM, first compound 0.316 µM
[34] = second compound 10 µM, first compound 1 µM
[35] = second compound 10 µM, first compound 3.16 µM
[36] = second compound 10 µM, first compound 10 µM
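Note: spheroids exposed to drugs for 7 days.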
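Throughout, for viability, T/C: 100% = DMSO vehicle control viability.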

For `C#Cc1c(F)ccc2cc(O)cc(-c3ncc4c(N5CC6CCC(C5)N6)nc(OCC56CCCN5CC(F)C6)nc4c3F)c12` (stereo unspecified) + CN(C)c1ccc(Nc2c3ccc(NC(=O)CCN4CCCC4)cc3nc3cc(NC(=O)CCN4CCCC4)ccc23)cc1, the IC50 (second compound 0.0316 µM) was 89.9 nM, the IC50 (second compound 0.1 µM) was 83.6 nM and the IC50 (second compound 0.316 µM) was 99.7 nM. It also gave an IC50 (second compound 1 µM) of 84.2 nM, an IC50 (second compound 3.16 µM) of 135 nM and an IC50 (second compound 10 µM) of 77 nM. For the same molecule, the viability, T/C [1] was 82%, the viability, T/C [2] was 47.4% and the viability, T/C [3] was 21.6%. It also gave a viability, T/C [4] of 16.9%, a viability, T/C [5] of 6.89% and a viability, T/C [6] of 7.82%. It also gave a viability, T/C [7] of 74.2%, a viability, T/C [8] of 45.7% and a viability, T/C [9] of 18.7%. It also gave a viability, T/C [10] of 11.1%, a viability, T/C [11] of 6.45% and a viability, T/C [12] of 7.02%. The viability, T/C [13] was 77%, the viability, T/C [14] was 50.4% and the viability, T/C [15] was 19.8%. For the same molecule, the viability, T/C [16] was 14.4%, the viability, T/C [17] was 8.31% and the viability, T/C [18] was 7.51%. It also gave a viability, T/C [19] of 74.6%, a viability, T/C [20] of 46.6% and a viability, T/C [21] of 21.3%. The viability, T/C [22] was 16.1%, the viability, T/C [23] was 14.3% and the viability, T/C [24] was 6.27%. It also gave a viability, T/C [25] of 73.9%, a viability, T/C [26] of 59.6% and a viability, T/C [27] of 22.9%. The viability, T/C [28] was 8.92%, the viability, T/C [29] was 8.54% and the viability, T/C [30] was 5.1%. The viability, T/C [31] was 74.3%, the viability, T/C [32] was 42.1% and the viability, T/C [33] was 24.2%. The viability, T/C [34] was 12.5%, the viability, T/C [35] was 6.96% and the viability, T/C [36] was 1.49%.
With `CC(=O)O[C@H]1C(=O)[C@@]2(C)[C@H]([C@H](OC(=O)c3ccccc3)[C@]3(O)C[C@H](OC(=O)[C@H](O)[C@@H](NC(=O)c4ccccc4)c4ccccc4)C(C)=C1C3(C)C)[C@]1(OC(C)=O)CO[C@@H]1C[C@@H]2O` + CN(C)c1ccc(Nc2c3ccc(NC(=O)CCN4CCCC4)cc3nc3cc(NC(=O)CCN4CCCC4)ccc23)cc1 the IC50 (second compound 0.0316 µM) was under 31.6 nM, the IC50 (second compound 0.1 µM) was under 31.6 nM and the IC50 (second compound 0.316 µM) was under 31.6 nM. For the same molecule, the IC50 (second compound 1 µM) was under 31.6 nM, the IC50 (second compound 3.16 µM) was under 31.6 nM and the IC50 (second compound 10 µM) was under 31.6 nM. For the same molecule, the viability, T/C [1] was 19.8%, the viability, T/C [2] was 6.1% and the viability, T/C [3] was 5.38%. The viability, T/C [4] was 3.55%, the viability, T/C [5] was 3.54% and the viability, T/C [6] was 3.9%. The viability, T/C [7] was 18.9%, the viability, T/C [8] was 7.57% and the viability, T/C [9] was 4.53%. The viability, T/C [10] was 3.24%, the viability, T/C [11] was 4.81% and the viability, T/C [12] was 4.04%. For the same molecule, the viability, T/C [13] was 20.1%, the viability, T/C [14] was 7.12% and the viability, T/C [15] was 4.2%. For the same molecule, the viability, T/C [16] was 4.04%, the viability, T/C [17] was 4.15% and the viability, T/C [18] was 3.98%. For the same molecule, the viability, T/C [19] was 11.8%, the viability, T/C [20] was 7.8% and the viability, T/C [21] was 5.59%. For the same molecule, the viability, T/C [22] was 3.93%, the viability, T/C [23] was 4.16% and the viability, T/C [24] was 4.31%. The viability, T/C [25] was 19.9%, the viability, T/C [26] was 6.16% and the viability, T/C [27] was 3.9%. For the same molecule, the viability, T/C [28] was 4.93%, the viability, T/C [29] was 4.08% and the viability, T/C [30] was 4.24%. For the same molecule, the viability, T/C [31] was 19.5%, the viability, T/C [32] was 6.64% and the viability, T/C [33] was 3.63%. The viability, T/C [34] was 3.44%, the viability, T/C [35] was 2.96% and the viability, T/C [36] was 2.41%.
Molecule `O=c1[nH]cc(F)c(=O)[nH]1` + CN(C)c1ccc(Nc2c3ccc(NC(=O)CCN4CCCC4)cc3nc3cc(NC(=O)CCN4CCCC4)ccc23)cc1 has an IC50 (second compound 0.0316 µM) of over 10000 nM, an IC50 (second compound 0.1 µM) of over 10000 nM and an IC50 (second compound 0.316 µM) of over 10000 nM. The IC50 (second compound 1 µM) was 7500 nM, the IC50 (second compound 3.16 µM) was 6320 nM and the IC50 (second compound 10 µM) was 7040 nM. For the same molecule, the viability, T/C [1] was 99%, the viability, T/C [2] was 97.1% and the viability, T/C [3] was 89%. For the same molecule, the viability, T/C [4] was 98.8%, the viability, T/C [5] was 68.8% and the viability, T/C [6] was 50.8%. The viability, T/C [7] was 98.9%, the viability, T/C [8] was 87% and the viability, T/C [9] was 102%. It also gave a viability, T/C [10] of 102%, a viability, T/C [11] of 67.5% and a viability, T/C [12] of 54.2%. It also gave a viability, T/C [13] of 94.2%, a viability, T/C [14] of 94.5% and a viability, T/C [15] of 101%. The viability, T/C [16] was 93.4%, the viability, T/C [17] was 62.1% and the viability, T/C [18] was 51.1%. It also gave a viability, T/C [19] of 87.5%, a viability, T/C [20] of 91.3% and a viability, T/C [21] of 98.6%. For the same molecule, the viability, T/C [22] was 112%, the viability, T/C [23] was 64.7% and the viability, T/C [24] was 45.1%. For the same molecule, the viability, T/C [25] was 97.2%, the viability, T/C [26] was 104% and the viability, T/C [27] was 104%. For the same molecule, the viability, T/C [28] was 101%, the viability, T/C [29] was 66.5% and the viability, T/C [30] was 39.1%. For the same molecule, the viability, T/C [31] was 90.9%, the viability, T/C [32] was 98.4% and the viability, T/C [33] was 98.5%. The viability, T/C [34] was 102%, the viability, T/C [35] was 65.3% and the viability, T/C [36] was 43.3%.
